Measured values: patent US5981497A, “Utilization of sophorolipids as therapeutically active substances or cosmetic products, in particular for the treatment of the skin” (Institut Francais du Petrole, priority 1995, dated 1999)

Assays:
[1] = molecular target: T1, fibrin clot reconstituted with bovine thrombin and human fibrinogen (Homo sapiens, UniProt P02671+P02675+P02679); assay: Fibrinolysis in vitro (lysis of fibrin clot); format: biochemical;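 also: values are percent lysis of the fibrin clot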
T1 sequence (P02671 20-644 isoform P02671-2 limits assumed): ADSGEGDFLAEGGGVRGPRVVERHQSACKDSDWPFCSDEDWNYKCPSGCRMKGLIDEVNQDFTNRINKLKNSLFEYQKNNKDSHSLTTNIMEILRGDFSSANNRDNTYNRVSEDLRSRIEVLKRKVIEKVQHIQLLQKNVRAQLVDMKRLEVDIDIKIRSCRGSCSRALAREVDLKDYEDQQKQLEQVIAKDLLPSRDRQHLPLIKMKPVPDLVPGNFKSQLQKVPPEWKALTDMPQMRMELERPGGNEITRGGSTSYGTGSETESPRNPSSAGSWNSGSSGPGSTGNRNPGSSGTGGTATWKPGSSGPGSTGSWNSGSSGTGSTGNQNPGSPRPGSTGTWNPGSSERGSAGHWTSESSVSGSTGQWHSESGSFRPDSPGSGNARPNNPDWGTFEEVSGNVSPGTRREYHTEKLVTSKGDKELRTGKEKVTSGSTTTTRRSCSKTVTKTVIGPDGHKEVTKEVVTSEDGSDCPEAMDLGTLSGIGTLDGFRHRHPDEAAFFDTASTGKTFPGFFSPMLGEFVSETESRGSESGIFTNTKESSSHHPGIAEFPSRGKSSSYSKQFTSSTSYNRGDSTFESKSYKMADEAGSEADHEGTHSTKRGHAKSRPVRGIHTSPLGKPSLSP
T1 sequence (P02675 45-491 limits assumed): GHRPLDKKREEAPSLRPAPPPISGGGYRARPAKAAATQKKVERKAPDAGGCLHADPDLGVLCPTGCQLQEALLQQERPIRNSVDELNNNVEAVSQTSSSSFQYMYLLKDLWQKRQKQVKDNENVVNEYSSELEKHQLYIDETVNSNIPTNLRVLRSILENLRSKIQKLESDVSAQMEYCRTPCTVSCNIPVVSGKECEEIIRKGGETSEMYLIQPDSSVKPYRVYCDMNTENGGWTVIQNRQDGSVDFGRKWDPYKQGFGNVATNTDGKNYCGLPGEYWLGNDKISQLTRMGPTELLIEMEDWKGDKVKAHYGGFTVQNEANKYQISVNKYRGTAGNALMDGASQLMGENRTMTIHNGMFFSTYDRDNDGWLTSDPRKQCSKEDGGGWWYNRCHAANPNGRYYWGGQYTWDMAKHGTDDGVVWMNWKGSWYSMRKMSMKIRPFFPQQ
T1 sequence (P02679 27-437 isoform P02679-2 limits assumed): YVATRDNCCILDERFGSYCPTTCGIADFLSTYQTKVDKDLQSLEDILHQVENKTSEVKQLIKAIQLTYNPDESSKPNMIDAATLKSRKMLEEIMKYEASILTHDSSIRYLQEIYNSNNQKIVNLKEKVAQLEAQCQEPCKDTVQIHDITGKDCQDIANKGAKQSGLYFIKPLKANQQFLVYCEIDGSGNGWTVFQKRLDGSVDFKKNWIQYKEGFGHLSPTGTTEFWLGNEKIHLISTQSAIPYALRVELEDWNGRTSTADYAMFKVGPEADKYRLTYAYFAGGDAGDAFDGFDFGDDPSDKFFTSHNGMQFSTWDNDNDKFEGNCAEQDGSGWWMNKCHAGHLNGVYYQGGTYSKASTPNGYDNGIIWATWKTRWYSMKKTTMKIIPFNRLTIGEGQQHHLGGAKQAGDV
Protocol: They also act directly on necrotic plaque. […] This lysis was measured from a fibrin clot that was reconstituted with bovine thrombin and human fibrinogen. The clot that is obtained is covered by 0.5 ml of PBS that contains the sample. The modification of the fibrin gel thickness at 4 hours and 24 hours makes it possible to quantify the fibrinolytic activity. This activity will therefore promote fibrinolysis at wounds, making it possible to act on the bedsore spot and to induce better granulation, as well as better organic tissue oxygenation. Moreover, owing to their surfactant property, sophorolipids make the fragments, molecules, soluble and detach the dead cells from the bed of the wound. This last action is more particularly due to their role in desquamation, which will be described below.

[2] = Cytotoxicity on primocultures at 24 hours (neutral red), fibroblasts; format: cell-based; conditions: fibroblasts, 24 hours, read-out: Cellular Viability Rate; for viability at 24 h, 1000 µM: 10^-3M; for viability at 24 h, 100 µM: 10^-4M; for viability at 24 h, 10 µM: 10^-5M; for viability at 24 h, 1 µM: 10^-6M
Text: (§1) Their innocuousness and their activity make it possible to use them in other stages of healing, namely granulation and epithelialization, by modulating their concentration in the formulas of products that are used. This is possible only because of the low cytotoxicity of sophorolipids, as Tables 3A and 3B show. The toxicity of the products of the invention has been evaluated with a viability test with neutral red on two cellular types of the skin, cells L929 and other fibroblasts of the dermis and cells NCTC 2544 and keratinocytes of the epidermis. The results, which are presented in Tables 3A, 3B, correspond to the rates of cellular viability that are expressed in % relative to the negative test.

[3] = Cytotoxicity on primocultures at 24 hours (neutral red), keratinocytes; format: cell-based; conditions: read-out: Cellular Viability Rate; for viability at 24 h, 1000 µM: 10^-3M; for viability at 24 h, 100 µM: 10^-4M; for viability at 24 h, 10 µM: 10^-5M; for viability at 24 h, 1 µM: 10^-6M
Text: as §1

[4] = Cytotoxicity on L929 at 24 hours (neutral red); format: cell-based; conditions: mouse, l929 cells, read-out: Cellular Viability Rate; for viability at 24 h, 50000 µM: 5.10-2M; for viability at 24 h, 5000 µM: 5.10-3M; for viability at 24 h, 500 µM: 5.10-4M; for viability at 24 h, 10000 µM: 10^-2M; for viability at 24 h, 1000 µM: 10^-3M; for viability at 24 h, 100 µM: 10^-4M; for viability at 24 h, 10 µM: 10^-5M
Text: as §1

[5] = tested on: keratinocyte culture (detachment of corneocytes); assay: Desquamating test, detachment of corneocytes in vitro; format: cell-based; conditions: for T60-T0 mean difference: p less than 0.001; for activity at 100 µM / activity at 10 µM / activity at 1 µM: Keratinocyte, read-out: %/TN, proportion of detached corneocytes relative to the negative test
Text: Variation coefficient CV is obtained as follows: [formula]
Actually, the therapeutic applications incidentally involve cosmetic applications.

| Structure (SMILES) | viability at 24 h, 1000 µM [2] [%] | viability at 24 h, 100 µM [2] [%] | viability at 24 h, 10 µM [2] [%] | viability at 24 h, 1 µM [2] [%] | viability at 24 h, 1000 µM [3] [%] | viability at 24 h, 100 µM [3] [%] | viability at 24 h, 10 µM [3] [%] | viability at 24 h, 1 µM [3] [%] | viability at 24 h, 50000 µM [4] [%] | viability at 24 h, 5000 µM [4] [%] | viability at 24 h, 500 µM [4] [%] | viability at 24 h, 10000 µM [4] [%] | viability at 24 h, 1000 µM [4] [%] | viability at 24 h, 100 µM [4] [%] | viability at 24 h, 10 µM [4] [%] | T60-T0 mean difference ([5]; 10^-4M) [corneocytes/ml] | T60-T0 mean difference ([5]; 10^-5M) [corneocytes/ml] | T60-T0 mean difference ([5]; 10^-6M) [corneocytes/ml] | activity at 100 µM ([5]; 10^-4M) [%] | activity at 10 µM ([5]; 10^-5M) [%] | further results |
| --- | --- | --- | --- | --- | --- | --- | --- | --- | --- | --- | --- | --- | --- | --- | --- | --- | --- | --- | --- | --- | --- |
| CC(CCCCCC/C=C\CCCCCCCC(=O)O)O[C@@H]1O[C@H](CO)[C@@H](O)[C@H](O)[C@H]1O[C@@H]1O[C@H](CO)[C@@H](O)[C@H](O)[C@H]1O (some centres unmarked) [Sophorolipid in Acid Form] | 85.7 | 98.3 | 98.7 | 99.7 | 86.7 | 99.3 | 99.9 | 99.5 | 5.47 | 7.62 | 99.2 | 6.18 | 100 | 102 | 101 | 2278 | 1944 | 1555 | 195 | 167 | Lysis of the fibrin clot ([1]; 4 hours, 10% MS): 75 % relative to TN; Lysis of the fibrin clot ([1]; 4 hours, 10-1M): 66 % relative to TN; Lysis of the fibrin clot ([1]; 4 hours, 10^-2M): 5 % relative to TN; Lysis of the fibrin clot ([1]; 4 hours, 10^-3M): 0 % relative to TN; Lysis of the fibrin clot ([1]; 4 hours, 10^-4M): 0 % relative to TN; Lysis of the fibrin clot ([1]; 4 hours, 10^-5M): 0 % relative to TN; Lysis of the fibrin clot ([1]; 24 hours, 10% MS): 90 % relative to TN; Lysis of the fibrin clot ([1]; 24 hours, 10-1M): 80 % relative to TN; Lysis of the fibrin clot ([1]; 24 hours, 10^-2M): 40 % relative to TN; Lysis of the fibrin clot ([1]; 24 hours, 10^-3M): 20 % relative to TN; Lysis of the fibrin clot ([1]; 24 hours, 10^-4M): 5 % relative to TN; Lysis of the fibrin clot ([1]; 24 hours, 10^-5M): 0 % relative to TN; activity at 1 µM ([5]; 10^-6M): 133% |
| CC1CCCCCC/C=C\CCCCCCCC(=O)O[C@H]2[C@H](O)[C@@H](O)[C@H](O[C@H]3[C@H](O1)O[C@H](CO)[C@@H](O)[C@@H]3O)O[C@@H]2CO (some centres unmarked) [Sophorolipid in Lactone Form] | 5.96 | 91.2 | 100 | 101 | 6.58 | 95.9 | 99.6 | 99.6 | 5.65 | 5.44 | 6.63 | 5.26 | 5.71 | 87 | 96.5 | 2389 | 1833 | 1528 | 205 | 157 | Lysis of the fibrin clot ([1]; 4 hours, 30% MS): 15 % relative to TN; Lysis of the fibrin clot ([1]; 24 hours, 30% MS): 33 % relative to TN; activity at 1 µM ([5]; 10^-6M): 131% |
